{
  "source": "patent US8993626B2",
  "about": "“Methods of treatment using sterculic acid” (The United States of America, as represented by the …, priority 2010, dated 2015)",
  "key": {"ARPE19 cells [1]": {"tested_on": "ARPE19 cells", "assay": "CellTiter-Glo luminescent cell viability assay, 15 μM 7KCh-induced cytotoxicity", "type": "cell-based, human", "conditions": "15 μM 7KCh, 24 hr, CellTiter-Glo", "procedure": "Error bar: standard deviation, n=4.\nCellTiter-Glo® Luminescent Cell Viability Assay is a homogeneous method of determining the number of viable cells in culture based on quantitation of the ATP (luminescent signal) present, an indicator of metabolically active cells.\nThe contents in a plate were mixed for 2 min on an orbital shaker to induce cell lysis.\n5) The plate was allowed to incubate at room temperature for 10 min to stabilize luminescent signal."}, "ARPE-19 cells [2]": {"tested_on": "ARPE-19 cells", "assay": "qRT-PCR of inflammatory cytokines and ER stress markers, 7KCh-mediated inflammation", "type": "cell-based", "conditions": "8 μM 7KCh alone or with 1 μM fatty acid", "procedure": "FIGS. 13A-13D depict mRNA expressions of (A) VEGF, (B) IL-6, (C) GRP78, and (D) CHOP in response to 8 μM 7KCh with or without 1 μM long-chain fatty acids. Error bars indicate the standard deviations. *p<0.05 comparing to 7KCh, n=3. Two-tailed Student's t-test.\n(§1) FIGS. 14A-14D depict mRNA expressions of (A) VEGF, (B) IL-1b, (C) IL-6, and (D) IL-8 in response to 8 μM 7KCh, 1 μM sterculic acid, 1 μM stearic acid, or the combinations of 7KCh with either sterculic acid or stearic acid. Error bars indicate the standard deviations. *p<0.05 comparing to 7KCh, n=4. Two-tailed Student's t-test.\nas §1, with “15A-15D” for “14A-14D”, “TNF-α,” for “VEGF,”, “TGF-β1,” for “IL-1b,”, “GRP78,” for “IL-6,”, “CHOP” for “IL-8”, “n=3-4.” for “n=4.”\n(§2) ARPE-19 cells were seeded in 24-well plates with 1×10^5 cells per well and allowed to recover for 16-24 hr. Once confluency reached approximately 90%, the effect of the fatty acids against 7KCh-mediated cell death was examined 24 hr after incubation in serum-free medium with 12 μM 7KCh. Fatty acids were tested at 0.1, 0.5, 1, 5 and 10 μM concentrations. The effects of the fatty acids against 7KCh-mediated inflammation and ER stress were examined by incubating cells in 1 μM fatty acids with either 8 μM 7KCh (24 hr for quantitative real-time PCR (qRT-PCR), 24 and 48 hr for immunoblot), or 6 μM 7KCh for 48 hr (for ELISA). Three individual experiments were performed for each treatment with quadruplicate measurements performed for each experiment in 24-well plates.\n(§3) The RNA was extracted using RNeasy Mini Kit (Qiagen, Valencia, Calif.). The reverse transcription was performed with reagents and kits from Invitrogen. Quantification of mRNA expression was performed using the Taqman gene expression assays and the following primers (VEGFa, Hs00173626_m1; IL-1β, Hs01555413_m1; IL-6, Hs00174131_m1; IL-8, Hs00174103_m1; IκBα, Hs00153283_m1; GRP78, Hs99999174_m1; CHOP, Hs01090850_m1; NOX2, Hs00166163_m1; NOX4, Hs01558199_m1; SCD, Hs00748952 s1; TNF-α, Hs00174128_m1; TGF-β1, Hs00998133_m1; GAPD, 4352934e). GAPD expression was used as an endogenous standard. All qRT-PCR experiments were measured in triplicates in an ABI 7500 Real-Time PCR Instrument (Applied Biosystems, Foster City, Calif.). The results of each treatment were normalized and presented in percentage relative to the vehicle-only control."}, "ARPE-19 cells [3]": {"tested_on": "ARPE-19 cells", "assay": "ELISA of secreted VEGF, IL-6, IL-8 in conditioned medium", "type": "cell-based", "conditions": "6 μM 7KCh alone or with 1 μM fatty acid, 48 hr", "procedure": "FIGS. 16A-16E depict the secreted protein levels of (A) VEGF, (B) IL-6, and (C) IL-8 were measure by ELISA 48 hr after treatment with 6 μM 7KCh, 1 μM sterculic acid, 1 μM stearic acid, or the combinations of 7KCh with either sterculic acid or stearic acid. Error bars indicate the standard deviations. *p<0.05 comparing to 7KCh, n=3. Two-tailed Student's t-test. The expressions of GRP78 and CHOP were shown by immunoblots (D) 24 hr or (E) 48 hr after treatment with 8 μM 7KCh, 1 μM sterculic acid, 1 μM stearic acid, or the combinations of 7KCh with either sterculic acid or stearic acid.\nas §2\nThe levels of secreted VEGF, IL-6, IL-8, and TNF-α in conditioned medium of ARPE-19 cell cultures were measured 48 hr after treatments of 6 μM 7KCh and 1 μM fatty acids using the Quantkine ELISA kits from R&D systems (Minneapolis, Minn.). The protein levels were measured in triplicates. The ELISA results were quantified using an Envision multilable plate reader (PerkinElmer, Covina, Calif.) and presented in percentage relative to the vehicle-only control."}, "[4]": {"tested_on": "stearoyl-CoA desaturase (SCD)", "assay": "SCD mRNA expression (qRT-PCR)", "type": "cell-based", "conditions": "4 μM 7KCh, 24 hr", "procedure": "FIGS. 18A and 18B depict (A) Dose response of SCD mRNA inductions by 0-12 μM 7KCh after 24 hr treatments. (B) The mRNA expressions of SCD in response to 8 μM 7KCh, 1 μM sterculic acid, 1 μM stearic acid, or the combinations of 7KCh with either sterculic acid or stearic acid. Error bars indicate the standard deviations. n=4.\nas §3\nTo determine the effect of 7KCh on SCD expression ARPE-19 cells were incubated with 4 μM 7KCh for 24 hr. 7KCh suppressed SCD mRNA expression by approximately 60-70% (FIG. 18A). […] Treatment of the cells with 8 μM 7KCh and 1 μM sterculic acid further suppress SCD expression to 86% (FIG. 18B). […] This is the only instance where 7KCh and sterculic acid worked synergistically rather than antagonistically."}, "[5]": {"assay": "7-ketocholesterol-mediated cytotoxicity, 24-well CCK-8 viability", "conditions": "human"}, "ARPE19 cells [6]": {"tested_on": "ARPE19 cells", "assay": "Cell Counting Kit-8 viability assay, 15 μM 7KCh-induced cytotoxicity", "conditions": "15 μM 7KCh, 24 hr, CCK-8"}},
  "data": [
    {"compound": "CC(C)CCC[C@@H](C)[C@H]1CC[C@H]2[C@@H]3C(=O)C=C4C[C@@H](O)CC[C@]4(C)[C@H]3CC[C@]12C", "note": "[7KCh, 7-Ketocholesterol]", "values": [
      {"measurement": "loss in cell viability", "setting": "ARPE19 cells [1]", "value": "40-50%"},
      {"measurement": "VEGF mRNA expression", "setting": "ARPE-19 cells [2]; 24 hr, FIG. 13A", "value": 4, "unit": "fold"},
      {"measurement": "IL-6 mRNA expression", "setting": "ARPE-19 cells [2]; 24 hr, FIG. 13B", "value": 22, "unit": "fold"},
      {"measurement": "GRP78 mRNA expression", "setting": "ARPE-19 cells [2]; 24 hr, FIG. 13C", "value": 4, "unit": "fold"},
      {"measurement": "CHOP mRNA expression", "setting": "ARPE-19 cells [2]; 24 hr, FIG. 13D", "value": 15, "unit": "fold"},
      {"measurement": "induction of VEGF mRNA", "setting": "ARPE-19 cells [2]; FIG. 14A", "value": 5.5, "unit": "fold"},
      {"measurement": "induction of IL-1β mRNA", "setting": "ARPE-19 cells [2]; FIG. 14B", "value": 6.7, "unit": "fold"},
      {"measurement": "induction of IL-6 mRNA", "setting": "ARPE-19 cells [2]; FIG. 14C", "value": 21, "unit": "fold"},
      {"measurement": "induction of IL-8 mRNA", "setting": "ARPE-19 cells [2]; FIG. 14D", "value": 4.7, "unit": "fold"},
      {"measurement": "induction of TNF-α mRNA", "setting": "ARPE-19 cells [2]; FIG. 15A", "value": 2.7, "unit": "fold"},
      {"measurement": "induction of TGF-β1 mRNA", "setting": "ARPE-19 cells [2]; FIG. 15B", "value": 1.3, "unit": "fold"},
      {"measurement": "induction of GRP78 mRNA", "setting": "ARPE-19 cells [2]; FIG. 15C", "value": 5.4, "unit": "fold"},
      {"measurement": "induction of CHOP mRNA", "setting": "ARPE-19 cells [2]; FIG. 15D", "value": 12, "unit": "fold"},
      {"measurement": "secreted IL-6 protein expression", "setting": "ARPE-19 cells [3]", "value": 1.8, "unit": "fold"},
      {"measurement": "secreted IL-8 protein expression", "setting": "ARPE-19 cells [3]", "value": 1.7, "unit": "fold"},
      {"measurement": "secreted VEGF protein expression", "setting": "ARPE-19 cells [3]", "value": 1.6, "unit": "fold"},
      {"measurement": "suppression of SCD mRNA expression", "setting": "[4]", "value": "60-70%"},
      {"measurement": "CC50 at 24 h", "setting": "[5]", "value": 11, "unit": "µM"},
      {"measurement": "loss in cell viability", "setting": "ARPE19 cells [6]", "value": "50-60%"}
    ]}
  ]
}
